# Measured values from PMC4239642, “trans-Acting Arginine Residues in the AAA+ Chaperone ClpB Allosterically Regulate the Activity through Inter- and Intradomain Communication” (The Journal of Biological Chemistry, 2014).
# Like-named read-outs stand apart in the source and are kept apart here.
# Legend:
# [1] = target: T1, ClpB NBD1-M dimer with P221C/M394C disulfide crosslink (Thermus thermophilus, UniProt Q9RA63, P221C/M394C); experiment: fluorescence displacement titration against MANT-dADP; type: binding; conditions: 2 µM protein, 50 mM Tris/HCl pH 7.5, 50 mM KCl, 5 mM MgCl2, 2 mM EDTA, 25 °C
# T1 construct: NBD1-M (residues 141-534) covalent dimer linked by intermolecular disulfide between P221C of one subunit and M394C of the other; expressed in E. coli BL21 (DE3) RIL; one cross-linked and one free site; associates to tetramers with ATP
# T1 sequence (Q9RA63 141-534 M394C): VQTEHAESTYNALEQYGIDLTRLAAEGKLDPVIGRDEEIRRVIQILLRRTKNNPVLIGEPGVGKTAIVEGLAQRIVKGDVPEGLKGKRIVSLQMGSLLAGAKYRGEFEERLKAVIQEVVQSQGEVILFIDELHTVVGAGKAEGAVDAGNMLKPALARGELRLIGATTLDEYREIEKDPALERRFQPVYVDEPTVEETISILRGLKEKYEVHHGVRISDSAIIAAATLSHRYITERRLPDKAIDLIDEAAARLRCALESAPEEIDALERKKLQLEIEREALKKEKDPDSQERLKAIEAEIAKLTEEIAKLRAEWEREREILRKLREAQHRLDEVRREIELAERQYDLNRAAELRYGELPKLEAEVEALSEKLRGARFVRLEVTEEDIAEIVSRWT
# T1 sequence (Q9RA63 141-534 P221C): as the sequence (Q9RA63 141-534 M394C) above, with P81C, C254M counted along it
# From the text: (§1) fluorescence displacement titration against MANT-dADP on ClpB NBD1-M dimer with P221C/M394C disulfide crosslink
# [2] = target: T2, ClpB NBD1-M (Thermus thermophilus, UniProt Q9RA63, R322A); experiment: as above; type: binding; conditions: 2 µM protein, 50 mM Tris/HCl pH 7.5, 50 mM KCl, 5 mM MgCl2, 2 mM EDTA, 25 °C
# T2 construct: expressed in E. coli BL21 (DE3) RIL; monomer/dimer equilibrium for the arginine mutants
# T2 sequence (Q9RA63 141-534 R322A): as the sequence (Q9RA63 141-534 M394C) above, with R182A, C254M counted along it
# From the text: (§2) fluorescence displacement titration against MANT-dADP on ClpB NBD1-M
# [3] = target: T3, ClpB NBD1-M (Thermus thermophilus, UniProt Q9RA63, R322A/R323A); experiment: as above; type: binding; conditions: 2 µM protein, 50 mM Tris/HCl pH 7.5, 50 mM KCl, 5 mM MgCl2, 2 mM EDTA, 25 °C
# T3 construct: expressed in E. coli BL21 (DE3) RIL; monomer/dimer equilibrium for the arginine mutants
# T3 sequence (Q9RA63 141-534 R322A/R323A): as the sequence (Q9RA63 141-534 M394C) above, with R182A, R183A, C254M counted along it
# From the text: as §2
# [4] = target: T4, ClpB NBD1-M (Thermus thermophilus, UniProt Q9RA63, R323A); experiment: as above; type: binding; conditions: 2 µM protein, 50 mM Tris/HCl pH 7.5, 50 mM KCl, 5 mM MgCl2, 2 mM EDTA, 25 °C
# T4 construct: expressed in E. coli BL21 (DE3) RIL; monomer/dimer equilibrium for the arginine mutants
# T4 sequence (Q9RA63 141-534 R323A): as the sequence (Q9RA63 141-534 M394C) above, with R183A, C254M counted along it
# From the text: as §2
# [5] = target: T5, ClpB NBD1-M dimer with P221C/M394C disulfide crosslink (Thermus thermophilus, UniProt Q9RA63, P221C/M394C, form not given); experiment: as above; type: binding; conditions: read-out: KD(ATP); 2 µM protein; 50 mM Tris/HCl pH 7.5, 50 mM KCl, 5 mM MgCl2, 2 mM EDTA, 25 °C; ATP-regenerating system (phosphoenolpyruvate, pyruvate kinase)
# T5 construct: NBD1-M (residues 141-534) covalent dimer linked by intermolecular disulfide between P221C of one subunit and M394C of the other; expressed in E. coli BL21 (DE3) RIL; one cross-linked and one free site; associates to tetramers with ATP
# T5 sequence (Q9RA63 141-534 M394C): as the sequence (Q9RA63 141-534 M394C) above
# T5 sequence (Q9RA63 141-534 P221C): as the sequence (Q9RA63 141-534 M394C) above, with P81C, C254M counted along it
# From the text: as §1
# [6] = target: T1, ClpB NBD1-M dimer with P221C/M394C disulfide crosslink; experiment: coupled colorimetric ATPase assay, Hill equation fit; type: biochemical; conditions: 5 µM protein (monomer units); 50 mM Tris/HCl pH 7.5, 100 mM KCl, 10 mM MgCl2, 2 mM EDTA, 25 °C; kcat per monomer
# From the text: coupled colorimetric ATPase assay, Hill equation fit on ClpB NBD1-M dimer with P221C/M394C disulfide crosslink
# [7] = target: T6, ClpB NBD1-M dimer with P221C/M394C disulfide crosslink (Thermus thermophilus, UniProt Q9RA63, M394C/P221C); experiment: stopped-flow FRET kinetics (koff/kon); type: binding; conditions: read-out: KD "free"
# T6 construct: NBD1-M (residues 141-534) covalent dimer linked by intermolecular disulfide between P221C of one subunit and M394C of the other; expressed in E. coli BL21 (DE3) RIL; one cross-linked and one free site; associates to tetramers with ATP
# T6 sequence (Q9RA63 141-534 M394C): as the sequence (Q9RA63 141-534 M394C) above
# T6 sequence (Q9RA63 141-534 P221C): as the sequence (Q9RA63 141-534 M394C) above, with P81C, C254M counted along it
# From the text: stopped-flow FRET kinetics (koff/kon) on ClpB NBD1-M dimer with P221C/M394C disulfide crosslink
# [8] = target: T2, ClpB NBD1-M; experiment: stopped-flow FRET kinetics (koff/kon); type: binding
# From the text: (§3) stopped-flow FRET kinetics (koff/kon) on ClpB NBD1-M
# [9] = target: T3, ClpB NBD1-M; experiment: stopped-flow FRET kinetics (koff/kon); type: binding
# From the text: as §3
# [10] = target: T4, ClpB NBD1-M; experiment: stopped-flow FRET kinetics (koff/kon); type: binding
# From the text: as §3
# [11] = read-out: KD(ATP), ATP-regenerating system (phosphoenolpyruvate, pyruvate kinase)
smiles,measurement,setting,value
Nc1ncnc2c1ncn2[C@@H]1O[C@H](COP(=O)(O)OP(=O)(O)O)[C@@H](O)[C@H]1O [ADP],Kd,[1]; read-out: KD(ADP),1.3 ± 0.1 µM
same,Kd,[2]; read-out: KD(ADP),10.7 ± 0.6 µM
same,Kd,[3]; read-out: KD(ADP),9.3 ± 0.7 µM
same,Kd,[4]; read-out: KD(ADP),10.2 ± 0.6 µM
Nc1ncnc2c1ncn2[C@@H]1O[C@H](COP(=O)(O)OP(=O)(O)OP(=O)(O)O)[C@@H](O)[C@H]1O [ATP],Kd,[1]; [11],96 ± 11 µM
same,Kd,[5],438 ± 17 µM
same,Km,[6],162 ± 4 µM
same,Kd,[2]; [11],1670 ± 160 µM
same,Kd,[3]; [11],2050 ± 180 µM
same,Kd,[4]; [11],1040 ± 120 µM
"CNc1ccccc1C(=O)O[C@H]1C[C@H](n2cnc3c(N)ncnc32)O[C@@H]1COP(=O)(O)OP(=O)(O)O [MANT-dADP, 2′-deoxy-3′-O-(N′-methylanthraniloyl)adenosine-5′-O-diphosphate]",Kd,[7],0.67 ± 0.04 µM
same,Kd,[8],8.3 ± 0.4 µM
same,Kd,[9],6.9 ± 0.2 µM
same,Kd,[10],6.7 ± 0.2 µM
